Reference: patent publication US20190183939A1, “CELL THERAPY USING MIDBRAIN-TYPE NEURAL STEM CELLS TREATED WITH VITAMIN C” (INDUSTRY-UNIVERSITY COOPERATION FOUNDATION HANYANG …, priority 2017, published 2019)

Columns and labels:
Type in all cases: cell-based, rat
VM-NSCs = assay: DA neuron differentiation (TH+ cell yield) of in vitro expanded VM-NSCs
Protocol: NSCs were cultured from rat embryo VMs (Sprague Dawley) at embryonic day 12 (E12) on 6-cm dishes or 24-well plates pre-coated with 15 μg/ml poly-L-ornithine (PLO; Sigma)/1 ug/ml fibronectin (FN; Sigma, St. Louis, Mo.) in serum-free N2 medium. NSCs were induced to proliferate by the mitogenic action of basic fibroblast growth factor (bFGF, 20 ng/ml, R&D Systems, Minneapolis, Minn.). The proliferating VM-NSCs cultured in 6-cm dishes were passaged at every 4th day in mitogen-supplemented medium with or without Vitamin C (VC; Sigma; 200 μM), glutathione reduced form (GSH; Sigma; 200 μM), vitamin E (alpha-tocopherol; Sigma; 200 μM), or N-acetylcysteine (NAc; Sigma; 100 μM). The expanded NSCs at the last day of each passage were induced to differentiate by withdrawing the mitogen and antioxidants from the media (for 2-16 days). Human NSC cultures were derived by in vitro differentiation of hESCs (H9) and cultured as described in the following reference. [Rhee, Y. H., Ko, J. Y., Chang, M. Y., Yi, S. H., Kim, D., Kim, C. H., Shim, J. W., Jo, A. Y., Kim, B. W., Lee, H., et al. (2011). Protein-based human iPS cells efficiently generate functional dopamine neurons and can treat a rat model of Parkinson disease. The Journal of clinical investigation 121, 2326-2335]. The human NSCs were expanded in ITS media supplemented with bFGF (20 ng/ml) in the presence or absence of VC for two NSC passages. Differentiation of the passaged human NSCs was induced by withdrawal of bFGF and VC in ITS supplemented with brain-derived neurotrophic factor (20 ng/ml; R&D Systems), glial cell line derived neurotrophic factor (20 ng/ml; R&D Systems), and dibutyryl cAMP (0.5 mmol/1; Sigma). Cultures were maintained at 37° C. in humidified 5% CO2 incubators.
(§1) Cultured cells and cryosectioned brain slices were fixed with 4% paraformaldehyde (PFA), and blocked for 40 minutes in blocking solution (Blocking solution: 1% BSA+0.3% Triton X-100). For 5hmC and 5mC staining, the fixed cells were incubated with 2 N HCl for 20 minutes before the blocking reaction. The samples were incubated overnight at 4° C. in the blocking solution containing the primary antibodies listed in Supplemental Table 1. Secondary antibodies tagged with Alexa 488 (1:200, Invitrogen, Carlsbad, Calif.) and Cy3 (1:200, Jackson Immunoresearch Laboratories, West Grove, Pa.) were applied. Stained samples were mounted in Vectashield medium containing 40,6-diamidino-2-phenylindole (DAPI; Vector Laboratories, West Grove, Pa.) and analysed under an epifluorescence (Leica, Wetzlar, Germany) or confocal microscope (Leica TSP SP5).
Immunostained cells were counted in 10-20 random areas of each culture coverslip using an eyepiece grid at a magnification of 200×. Data are expressed as the mean±SEM of three to eight independent cultures. […]

[1] = system: global 5hmC/5mC and H3K27m3/H3K9m3 levels in VM-NSCs; assay: Global epigenetic code determination (dot blot, western blot, immunocytochemistry)
Protocol: as §1
DNA dot blot analysis for 5hmC/5mC was performed as described in the following reference. [He, X. B., Kim, M., Kim, S. Y., Yi, S. H., Rhee, Y. H., Kim, T., Lee, E. H., Park, C. H., Dixit, S., Harrison, F. E., et al. (2015). Vitamin C facilitates dopamine neuron differentiation in fetal midbrain through TET1- and JMJD3-dependent epigenetic control manner. Stem Cells 33, 1320-1332]. Briefly, genomic DNA was extracted and quantified. Genomic DNA (80 ng) was spotted on nitrocellulose membranes, air dried, and exposed in UV for 20 minutes. After blocking with 5% bovine serum albumin (BSA)/Tris-buffered saline-Tween 20 at room temperature for 2 hours, the membrane was incubated in anti-5hmC (Active Motif, Carlsbad, Calif.) and anti-5mC (Abcam, Cambridge, UK) antibodies at 4° C. overnight. Western-blots for determining global histone modification changes were performed as described in the following reference. [Rumbaugh, G., and Miller, C. A. (2011). Epigenetic changes in the brain: measuring global histone modifications. Methods Mol Biol 670, 263-274]. […] Positive bands were detected and captured by ChemiDoc (Bio-Rad, Hercules, Calif.), and the intensities of the bands were quantified using ImageJ software (http://imagej.nih.gov/ij).

[2] = system: Foxa2 and Lmx1a promoters; assay: DIP-qPCR and ChIP-qPCR on Foxa2 and Lmx1a promoters
Source text: (§2) Foxa2 and Nurr1 binding sites were identified using the Jaspar database (http://jaspar.genereg.net/) using an 80% score threshold. Predicted Foxa2 and Nurr1 binding sites were coupled with phylogenetic footprinting to eliminate spurious predictions with specified position weight matrix (PWM) settings, as described in the following reference. [Sandelin, A., and Wasserman, W. W. (2004). Constrained binding site diversity within families of transcription factors enhances pattern discovery bioinformatics. Journal of molecular biology 338, 207-215] (Table 2). ChIP and DIP assays were carried out as described in the following reference. [Prolonged membrane depolarization enhances midbrain dopamine neuron differentiation via epigenetic histone modifications. Stem Cells 29, 1861-1873]. Briefly, chromatin or genomic DNA was sheared to an average of 200-500 bp in length using a sonication Bioruptor (BMS, Seoul, Korea) and immunoprecipitated using the antibodies listed in Table 1. Immunoprecipitated DNA fragments were collected using magnetic beads (Invitrogen), purified, and subjected to real-time PCR using the primers listed in Table 3. The comparative cycle threshold method was used to quantify the results. Data were normalized to the input DNA.

[3] = system: GAD67, TPH2 and GFAP promoters; assay: DIP-qPCR and ChIP-qPCR on GAD67, TPH2 and GFAP promoters; conditions: VC administration to proliferating VM-NSCs
Source text: as §2

## O=C1O[C@H]([C@@H](O)CO)C(O)=C1O [VC, L-ascorbic acid]
VM-NSCs; P1, VC during expansion, differentiated 12 days without VC
  expression of other DA phenotypes (VMAT2, AADC and DAT) in TH+ cells: Virtually all
VM-NSCs; VC 200 uM during expansion, P1 cultures, differentiated without VC, D6
  TH+ cell yields (% of total DAPI+ cells): 10.85±1.2%
VM-NSCs; VC during expansion, P2 cultures, differentiated without VC
  TH+ DA neuronal yields: 1.22±0.1%
VM-NSCs; antioxidant during expansion for 8 days (up to P1), differentiation without antioxidants
  prevention of DA neuron loss in passaged cultures: prevention of DA neuron loss
[1]; D0
  global 5mC levels: significant decrease
  global levels of H3K27m3 and H3K9m3: reduced
[1]; D0, immunoblotting and immunocytochemical analyses
  global 5hmC levels: greatly increased
[2]; ChIP-qPCR, D0
  binding of Tet1, Jmjd3 and Jmjd2 proteins to Foxa2 and Lmx1a promoter regions: increased binding
[2]; MeDIP-qPCR, VC-treated NSCs
  5mC levels in Foxa2 promoter regions: reduced
[2]; hMeDIP-qPCR, VC-treated NSCs
  5hmC in Foxa2 promoter regions: more abundant
[3]
  epigenetic codes on TPH2 and GAD67 genes: did not affect
